In publication PMC10615251 (Biochemistry, 2023):

Columns and labels:
[1] = system: T1, UDP-α-D-xylose 4-epimerase (HS:15.17); settings: read-out: KUDP-xyl (apparent); 50 mM HEPES/KOH pH 8.0, 25 °C
T1 construct: gene HS15.17

[2] = system: T2, UDP-α-D-glucose 6-dehydrogenase (HS:15.18); settings: read-out: KNAD (apparent); 1.0 mM UDP-D-glucose, 50 mM triethanolamine pH 8.7, 25 °C
T2 construct: gene HS15.18

[3] = system: T3, UDP-α-D-glucuronate 6-decarboxylase (HS:15.19); experiment: anion exchange chromatography of UDP-xylose formed, […] nm; format: biochemical, Campylobacter jejuni; settings: 50 mM phosphate pH 6.5
T3 construct: gene HS15.19

`O=c1ccn([C@@H]2O[C@H](COP(=O)(O)OP(=O)(O)O[C@H]3OC[C@@H](O)[C@H](O)[C@H]3O)[C@@H](O)[C@H]2O)c(=O)[nH]1` [compound 5, UDP-α-D-xylose] showed a Km [1] of 125 ± 13 µM.
For `NC(=O)c1ccc[n+]([C@@H]2O[C@H](COP(=O)(O)OP(=O)(O)OC[C@H]3O[C@@H](n4cnc5c(N)ncnc54)[C@H](O)[C@@H]3O)[C@@H](O)[C@H]2O)c1` [NAD^+], the Km [2] was 120 ± 10 µM and the “Ka (activation constant, concentration at 1⁄2 saturation)” value ([3]; 2.5 mM UDP-D-glucuronate) was 17 ± 5 µM.
With `O=C(O)[C@H]1O[C@H](OP(=O)(O)OP(=O)(O)OC[C@H]2O[C@@H](n3ccc(=O)[nH]c3=O)[C@H](O)[C@@H]2O)[C@H](O)[C@@H](O)[C@@H]1O` [compound 4, UDP-α-D-glucuronate] the Km ([3]; read-out: KUDP-glc (apparent), 0.30 mM NAD+) was 250 ± 30 µM.
